The results in this text go back to US9040663B2, “Melanocortin receptor-specific peptides” (AstraZeneca AB, priority 2009, dated 2015).

Where two headings read alike, the source gives them in different places. Positions of bridges follow the written chain, without caps; N, C: chain ends. Non-standard residues stand in square brackets, D forms with d. Residues, ends and D or L forms follow the SMILES beside them. dPhe(4-CN) = N#Cc1ccc(C[C@@H](N)C(=O)O)cc1; dPhe(2-F) = N[C@H](Cc1ccccc1F)C(=O)O; Orn = NCCC[C@H](N)C(=O)O

One assay concerns the target MC1-R. The assay can be described thus: Competitive inhibition binding assay using [I125]-NDP-α-MSH, MC1-R. Conditions: membranes of B-16 mouse melanoma cells (endogenous MC1-R), in some instances HEK-293 hMC1-R. The protocol: 7.1 Competitive Inhibition Assay using [I^125]-NDP-α-MSH.
A competitive inhibition binding assay was performed for exemplified peptides according to the invention using membrane homogenates prepared from HEK-293 cells that express recombinant hMC4-R, hMC3-R, or hMC5-R, and from B-16 mouse melanoma cells (containing endogenous MC1-R). In some instances, HEK-293 cells that express recombinant hMC1-R were employed. Assays were performed in 96 well GF/B Millipore multiscreen filtration plates (MAFB NOB10) pre-coated with 0.5% bovine serum albumin (Fraction V). Membrane homogenates were incubated with 0.2 nM (for hMC4-R) 0.4 nM (for MC3-R and MC5-R) or 0.1 nM (for mouse B16 MC1-R or hMC1-R) [I^125]-NDP-α-MSH (Perkin Elmer) and increasing concentrations of test peptides of the present invention in buffer containing 25 mM HEPES buffer (pH 7.5) with 100 mM NaCl, 2 mM CaCl2, 2 mM MgCl2, 0.3 mM 1,10-phenanthroline, and 0.2% bovine serum albumin. After incubation for 60 minutes at 37° C., the assay mixture was filtered and the membranes washed three times with ice-cold buffer. Filters were dried and counted in a gamma counter for bound radioactivity. […] Maximal specific binding (100%) was defined as the difference in radioactivity (cpm) bound to cell membranes in the absence and presence of 1 μM NDP-α-MSH. […] Each assay was conducted in triplicate and the actual mean values are described, with results less than 0% reported as 0%. Ki values for test peptides of the present invention were determined using Graph-Pad Prism® curve-fitting software.

The target of assay [1] is T1, hMC4-R (Homo sapiens (Human), UniProt P32245). The assay can be described thus: High and low density hMC4-R functional assay (cAMP, HEK293-T-REx-MC4-R cells). Type of assay: cell-based. Conditions: for Emax: NDP-α-MSH = 100%, read-out: Intrinsic Activity (%).
Assay [2] has as its target T1, hMC4-R. The assay can be described thus: Competitive inhibition binding assay using [I125]-NDP-α-MSH, hMC4-R. Conditions: membranes of HEK-293 cells expressing recombinant hMC4-R, read-out: MC4-R Ki.
Where [3] appears, read: 0.1 ng/mL Doxycycline (low density hMC4-R system).
[4] abbreviates: 10 ng/mL Doxycycline (high density hMC4-R system).

T1 sequence (P32245 whole entry): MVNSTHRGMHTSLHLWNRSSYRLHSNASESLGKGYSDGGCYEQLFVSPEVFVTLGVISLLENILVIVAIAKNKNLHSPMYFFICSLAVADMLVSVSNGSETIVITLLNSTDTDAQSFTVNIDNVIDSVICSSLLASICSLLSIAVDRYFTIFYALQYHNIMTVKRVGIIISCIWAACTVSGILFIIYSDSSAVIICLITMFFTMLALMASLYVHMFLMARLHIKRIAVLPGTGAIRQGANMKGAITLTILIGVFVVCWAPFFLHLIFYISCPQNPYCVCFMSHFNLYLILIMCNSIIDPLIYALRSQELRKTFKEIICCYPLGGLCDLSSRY

As a reminder, the Ki is the equilibrium dissociation constant of an inhibitor or competing ligand from its target. As usually defined, the EC50 is the concentration that produces a half-maximal response. High values mean lower potency in that assay, low ones higher potency in that assay. At MC1-R, `CC(=O)N[C@@H](CCCNC(=N)N)C(=O)N[C@H]1CCC(=O)NCCC[C@@H](C(=O)O)NC(=O)[C@H](Cc2c[nH]c3ccccc23)NC(=O)[C@H](CCCNC(=N)N)NC(=O)[C@@H](Cc2ccc(C#N)cc2)NC(=O)[C@H](CCC(N)=O)NC1=O` [Example 86, Ac-Arg-cyclo(Glu-Gln-D-Phe(4-CN)-Arg-Trp-Orn)-OH] displayed a Ki of 3970 nM. Further, on hMC4-R [1] (setting [3]), the EC50 stood at 9 nM and the Emax was 36%. The Emax at hMC4-R [1] (setting [4]) amounted to 96%.
`CC(=O)N[C@@H](CCCNC(=N)N)C(=O)N[C@H]1CCC(=O)NCCC[C@@H](C(N)=O)NC(=O)[C@H](Cc2c[nH]c3ccccc23)NC(=O)[C@H](CCCNC(=N)N)NC(=O)[C@@H](Cc2ccc(C#N)cc2)NC(=O)[C@H](CC(=O)O)NC1=O` [Example 106, Ac-Arg-cyclo(Glu-Asp-D-Phe(4-CN)-Arg-Trp-Orn)-NH2] (Ac-RED[dPhe(4-CN)]RW[Orn]-NH2; lactam 2-7) came in with a Ki at MC1-R of 10000 nM. The figures for the Emax at hMC4-R [1] (setting [3]) and on hMC4-R [1] (setting [4]) were 3% and 77%, respectively.
For the compound `CC(=O)N[C@@H](CCCNC(=N)N)C(=O)N[C@H]1CCC(=O)NCCC[C@@H](C(N)=O)NC(=O)[C@H](Cc2c[nH]c3ccccc23)NC(=O)[C@H](CCCNC(=N)N)NC(=O)[C@@H](Cc2ccccc2C)NC(=O)[C@H](CC(N)=O)NC1=O` [Example 73, Ac-Arg-cyclo(Glu-Asn-D-Phe(2-Me)-Arg-Trp-Orn)-NH2], at hMC4-R [2], the Ki came out at 4 nM. Besides, the figures for the Emax at hMC4-R [1] (setting [3]) and at hMC4-R [1] (setting [4]) were 86% and 102%, respectively.
In the case of `CC(=O)N[C@@H](CCCNC(=N)N)C(=O)N[C@H]1CCC(=O)NCCC[C@@H](C(N)=O)NC(=O)[C@H](Cc2c[nH]c3ccccc23)NC(=O)[C@H](CCCNC(=N)N)NC(=O)[C@@H](Cc2ccccc2C)NC(=O)[C@H](CCN)NC1=O` [Example 18, Ac-Arg-cyclo(Glu-Dab-D-Phe(2-Me)-Arg-Trp-Orn)-NH2], at hMC4-R [2], the inhibitory constant (Ki) is 0.5 nM. On hMC4-R [1] (setting [3]), the EC50 was determined as 0.14 nM and the Emax was determined as 83%. Moreover, at hMC4-R [1] (setting [4]), the concentration giving a half-maximal response (EC50) is 0.085 nM and the Emax was determined as 97%.
The corresponding values for `CC(=O)N[C@@H](CCCNC(=N)N)C(=O)N[C@H]1CCC(=O)NCCC[C@@H](C(N)=O)NC(=O)[C@H](Cc2c[nH]c3ccccc23)NC(=O)[C@H](CCCNC(=N)N)NC(=O)[C@@H](Cc2cccc(C(F)(F)F)c2)NC(=O)[C@H](CCN)NC1=O` [Example 14, Ac-Arg-cyclo(Glu-Dab-D-Phe(3-CF3)-Arg-Trp-Orn)-NH2] are 0.95 nM, 8 nM, 16%, 0.4 nM and 93%.
For `CC(=O)N[C@@H](CCCNC(=N)N)C(=O)N[C@H]1CCC(=O)NCCC[C@@H](C(N)=O)NC(=O)[C@H](Cc2c[nH]c3ccccc23)NC(=O)[C@H](CCCNC(=N)N)NC(=O)[C@@H](Cc2cccc(Cl)c2)NC(=O)[C@H](CO)NC1=O` [Example 35, Ac-Arg-cyclo(Glu-Ser-D-Phe(3-Cl)-Arg-Trp-Orn)-NH2], the Ki at hMC4-R [2] was 10 nM. For the same compound, the Emax on hMC4-R [1] (setting [3]) was 6%. Also, at hMC4-R [1] (setting [4]), the concentration giving a half-maximal response (EC50) is 1 nM and the Emax amounted to 84%.
`CC(=O)N[C@@H](CCCNC(=N)N)C(=O)N[C@H]1CCC(=O)NCCC[C@@H](C(N)=O)NC(=O)[C@H](Cc2c[nH]c3ccccc23)NC(=O)[C@H](CCCNC(=N)N)NC(=O)[C@@H](Cc2ccc(-c3ccccc3)cc2)NC(=O)[C@H](CCN)NC1=O` [Example 29, Ac-Arg-cyclo(Glu-Dab-D-Phe(4-Ph)-Arg-Trp-Orn)-NH2]: the Ki on hMC4-R [2] was 0.5 nM. In addition, the half-maximal effective concentration (EC50) at hMC4-R [1] (setting [3]) is 3 nM; on hMC4-R [1] (setting [4]), 0.8 nM. The figures for the Emax on hMC4-R [1] (setting [3]) and on hMC4-R [1] (setting [4]) were 14% and 100%, respectively.
Taken in the same sequence, the figures for `CC(=O)N[C@@H](CCCNC(=N)N)C(=O)N[C@H]1CCC(=O)NCCC[C@@H](C(N)=O)NC(=O)[C@H](Cc2c[nH]c3ccccc23)NC(=O)[C@H](CCCNC(=N)N)NC(=O)[C@@H](Cc2ccc(C)cc2)NC(=O)[C@H](CCN)NC1=O` [Example 15, Ac-Arg-cyclo(Glu-Dab-D-Phe(4-Me)-Arg-Trp-Orn)-NH2] were 0.145 nM, 0.165 nM, 0.2 nM, 16% and 90%.
Turning to `CC(=O)N[C@@H](CCCNC(=N)N)C(=O)N[C@H]1CCCNC(=O)CC[C@@H](C(N)=O)NC(=O)[C@H](Cc2c[nH]c3ccccc23)NC(=O)[C@H](CCCNC(=N)N)NC(=O)[C@@H](Cc2ccccc2C(F)(F)F)NC(=O)[C@H](CC(N)=O)NC1=O` [Example 117, Ac-Arg-cyclo(Orn-Asn-D-Phe(2-CF3)-Arg-Trp-Glu)-NH2], the inhibition constant Ki at hMC4-R [2] came out at 5 nM. Further, on hMC4-R [1] (setting [3]), a half-maximal effect (EC50) was put at 1 nM and the Emax came to 50%. On hMC4-R [1] (setting [4]), the Emax came to 112%.
For `CC(=O)N[C@H](CCCNC(=N)N)C(=O)N[C@H]1CCCNC(=O)CC[C@@H](C(N)=O)NC(=O)[C@H](Cc2c[nH]c3ccccc23)NC(=O)[C@H](CCCNC(=N)N)NC(=O)[C@@H](Cc2ccccc2Cl)NC(=O)[C@H](Cc2c[nH]cn2)NC1=O` [Example 50, Ac-D-Arg-cyclo(Orn-His-D-Phe(2-Cl)-Arg-Trp-Glu)-NH2], at hMC4-R [2], the Ki turned out to be 1 nM. On hMC4-R [1] (setting [3]), the concentration for a half-maximal effect (EC50) worked out at 0.21 nM and the Emax came to 94%. At hMC4-R [1] (setting [4]), the EC50 came to 0.085 nM and the Emax was 94%.
As to `CC(=O)N[C@@H](CCCNC(=N)N)C(=O)N[C@H]1CCCNC(=O)CC[C@@H](C(N)=O)NC(=O)[C@H](Cc2c[nH]c3ccccc23)NC(=O)[C@H](CCCNC(=N)N)NC(=O)[C@@H](Cc2cc(F)cc(F)c2)NC(=O)[C@H](CC(N)=O)NC1=O` [Example 77, Ac-Arg-cyclo(Orn-Asn-D-Phe(3,5-diF)-Arg-Trp-Glu)-NH2], on hMC4-R [2], the inhibitory constant (Ki) was found to be 8 nM. On hMC4-R [1] (setting [3]), the EC50 was determined as 3 nM and the Emax was found to be 34%. Moreover, the Emax on hMC4-R [1] (setting [4]) was 80%.
`CC(=O)N[C@@H](CCCNC(=N)N)C(=O)N[C@H]1CCCNC(=O)CC[C@@H](C(N)=O)NC(=O)[C@H](Cc2c[nH]c3ccccc23)NC(=O)[C@H](CCCNC(=N)N)NC(=O)[C@@H](Cc2ccccc2F)NC(=O)[C@@H]2CCCN2C1=O` [Example 105, Ac-Arg-cyclo(Orn-Pro-D-Phe(2-F)-Arg-Trp-Glu)-NH2] (Ac-R[Orn]P[dPhe(2-F)]RWE-NH2; lactam 2-7): the inhibition constant (Ki) at hMC4-R [2] was found to be 7 nM. Besides, on hMC4-R [1] (setting [3]), the EC50 amounted to 3 nM and the Emax came to 35%. For the same compound, at hMC4-R [1] (setting [4]), the EC50 worked out at 0.15 nM and the Emax stood at 94%.
With `CC(=O)N[C@@H](CCCNC(=N)N)C(=O)N[C@H]1CCC(=O)NCCC[C@@H](C(N)=O)NC(=O)[C@H](Cc2c[nH]c3ccccc23)NC(=O)[C@H](CCCNC(=N)N)NC(=O)[C@@H](Cc2ccccc2Cl)NC(=O)[C@H](CN)NC1=O` [Example 62, Ac-Arg-cyclo(Glu-Dap-D-Phe(2-Cl)-Arg-Trp-Orn)-NH2], the inhibition constant (Ki) on hMC4-R [2] stood at 9 nM. The EC50 came out at 16 nM on hMC4-R [1] (setting [3]) and 0.47 nM on hMC4-R [1] (setting [4]). For the same compound, the Emax came out at 23% at hMC4-R [1] (setting [3]) and 84% at hMC4-R [1] (setting [4]).
The corresponding values for `CC(=O)N[C@H](CCCNC(=N)N)C(=O)N[C@H]1CC(=O)NCCCC[C@@H](C(N)=O)NC(=O)[C@H](Cc2c[nH]c3ccccc23)NC(=O)[C@H](CCCNC(=N)N)NC(=O)[C@@H](Cc2ccc(F)c(F)c2)NC(=O)[C@H](CCC(N)=O)NC1=O` [Example 78, Ac-D-Arg-cyclo(Asp-Gln-D-Phe(3,4-diF)-Arg-Trp-Lys)-NH2] are 8 nM, 2 nM, 0.2 nM, 48% and 89%.
The corresponding values for `CC(=O)N[C@@H](CCCNC(=N)N)C(=O)N[C@H]1CCC(=O)NCCC[C@@H](C(N)=O)NC(=O)[C@H](Cc2c[nH]c3ccccc23)NC(=O)[C@H](CCCNC(=N)N)NC(=O)[C@@H](Cc2cccc(C)c2)NC(=O)[C@H](CCN)NC1=O` [Example 19, Ac-Arg-cyclo(Glu-Dab-D-Phe(3-Me)-Arg-Trp-Orn)-NH2] are 0.4 nM, 0.42 nM, 0.22 nM, 35% and 97%.
The corresponding values for `CC(=O)N[C@@H](CCCNC(=N)N)C(=O)N[C@H]1CCCCNC(=O)C[C@@H](C(N)=O)NC(=O)[C@H](Cc2c[nH]c3ccccc23)NC(=O)[C@H](CCCNC(=N)N)NC(=O)[C@@H](Cc2ccc(C#N)cc2)NC(=O)[C@H](CCC(N)=O)NC1=O` [Example 93, Ac-Arg-cyclo(Lys-Gln-D-Phe(4-CN)-Arg-Trp-Asp)-NH2] (Ac-RKQ[dPhe(4-CN)]RWD-NH2; lactam 2-7) are 1 nM, 0.3 nM, 0.17 nM, 44% and 97%.
